# Measurements: patent US8835644B2, “Broad spectrum benzothiophene-nitrothiazolide and other antimicrobials” (University of Virginia Patent Foundation, priority 2009, dated 2014)
# Like-named read-outs stand apart in the source and are kept apart here.
# Experiments:
# [1] = tested on: E. coli biofilm; experiment: E. coli biofilm assay (activity tables); type: cell-based, Escherichia coli
# How it was run: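 After 24 h static culture at 37 °C in wells containing NTZ, strain 042 (1:100 inoculum) biofilm was quantified by 0.5% crystal violet absorbance at 570 nm. Planktonic growth was taken from turbidity or LB plate counts as cfu/ml; all runs triplicate, reported as mean and SD.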
# [2] = tested on: S. epidermidis 9142; experiment: Biofilm dispersal assay; type: cell-based, Staphylococcus epidermidis; conditions: drug added to 4 h biofilm
# [3] = tested on: EAEC strain 042; experiment: Quantitative biofilm assay, EAEC; type: cell-based, Escherichia coli
# Method: A quantitative biofilm assay was used to determine the effect of NTZ on biofilm formation (41). Strain 042 was grown overnight at 37° C. with shaking and inoculated 1:100 in 200 μl culture medium in Costar 96-well, flat-bottom, polystyrene microtiter plates containing appropriate concentrations of NTZ. Plates were incubated statically at 37° C. in a humidified incubator. At 24 h, bacterial growth was measured by either transferring […] aliquots to another microtiter plate to determine turbidity or by diluting 100 μl aliquots 1:100 in 9.9 ml PBS for quantitative plate counts on LB medium. Bacterial counts in triplicate are reported as cfu/ml. Biofilm was visualized following staining with 0.5% crystal violet (41) and the absorbance was read at 570 nm using a microplate reader (Molecular Dynamics). All experiments were in triplicate and reported as mean and standard deviation.
# Assays were initially performed with and without 25 μg/ml NTZ using five different growth media: DMEM, DMEM with 0.4% glucose, LB, LB with 0.4% glucose, and our chemically defined medium containing 1% glucose. E. coli DH5αt served as a negative control for biofilm formation. Assays were then run with increasing concentrations of NTZ (0, 5, 10, 15, 20, 25 μg/ml) both in the chemically defined medium and in DMEM with 0.4% glucose. […]
# [4] = tested on: EAEC JM221 (AAF/I fimbriae); experiment: Hemagglutination of sheep erythrocytes, EAEC JM221; type: cell-based, Escherichia coli; conditions: EAEC JM221 grown in MinA-G with 20 μg/ml NTZ; also: key: +++ = strong hemagglutination reaction; + weak; − no hemagglutination
# Method: HA assays were performed in 96-well microplates as described in (1). Bacteria grown over night without shaking ([…]) were suspended in PBS and diluted to OD660 of […] was mixed with an equal volume of 3% (vol/vol) sheep erythrocyte suspension containing 1% mannose, except when type I fimbriae producing strains were assayed. In the latter, bacteria were grown statically in LB medium (with and without NTZ) for 48 h and HA was determined with guinea pig erythrocytes. HA reactions were incubated at 4° C. for […] HA was determined visually against controls receiving no NTZ. All assays were prepared in triplicate and repeated twice.
# [5] = tested on: AafA fimbriae of EAEC 042; experiment: Fimbrial filaments by SDS-PAGE, immunoblot, immunofluorescence; type: cell-based, Escherichia coli; conditions: EAEC 042, MinA-G, 20 μg/ml
# Method: A simplified procedure for mechanical removal of fimbriae was modified from Dodd and Eisenstein (5). […] The cultures were spun down at 4,000 rpm for 5 min at 25° C. Pellets were resuspended in 2 ml PBS, vortexed 2× for 30 sec to shear off flagella and fimbriae, and then centrifuged at 8,000 rpm for 10 min to remove whole cells. The supernatants, containing fimbrial filaments, were transferred to new tubes, and 8 ml of acetone were added to precipitate proteins. Solutions were spun down again at 8,000 rpm for 10 min, and the acetone was decanted. The remaining protein pellets were resuspended in 50 μl PBS and 100 μl 3× loading buffer containing 2-mercaptoethanol.
# To analyze the proteins contained in the biofilm, the flasks were rinsed with water to remove residual bacteria, and the biofilms were dissolved in 1-2 ml 1% SDS. 50 μl of each solution was combined with 100 μl 3× loading buffer in PCR tubes. All five samples were run in a NuPAGE 4-12% Bis-Tris gel at 120 V and stained with Coomassie brilliant blue or used directly for transfer of proteins to nitrocellulose.
# Ponceau red stained nitrocellulose was used to visualize transferred proteins and immunoblotting protocols used in this study as described (14). […] The slides were washed 3× in PBS, dried and visualized with a Zeiss epi-fluorescence microscope.
smiles,measurement,setting,value
"CC(=O)Oc1ccccc1C(=O)Nc1ncc([N+](=O)[O-])s1 [Nitazoxanide, 2-(acetyloxy)-N-(5-nitro-2-thiazolyl)benzamide, reference compound]",MIC,"[1]; Escherichia coli, biofilm, Furan analogues table, read-out: MIC E. coli Biofilm",26 µM
same,MIC,"[1]; Escherichia coli, read-out: MIC (μM) E. coli Biofilm",26 µM
same,MIC,"[1]; biofilm, 2-amino-3,5-dinitrothiophene analogues table, read-out: MIC E. coli Biofilm",26.0 µM
same,MIC,"[1]; biofilm, Thiophene analogues table, read-out: MIC E. coli Biofilm",26.0 µM
same,Dispersal of preformed biofilm,[2],not dispersive
same,Inhibition of biofilm formation,"[3]; EAEC 042, MinA-G, 20 μg/ml",almost complete inhibition
same,IC50,"[3]; Escherichia coli, EAEC 042, DMEM and MinA-G media, read-out: IC50 biofilm production",~12 µg/mL
same,"HA (sheep erythrocytes), bacterial OD660 0.5",[4],−
same,"HA (sheep erythrocytes), bacterial OD660 1.0",[4],−
same,Fimbrial filaments from vortexed whole cells,[5],nearly absent
